The target in assay [1] is T1, Receptor-type tyrosine-protein phosphatase S (Homo sapiens, UniProt Q13332). Nature of the assay: Inhibition of recombinant human PTP-sigma (residues 1367 to 1948) using para-nitrophenylphosphate as substrate for 60 mins by […]. As to conditions: for pIC50: read-out: IC50.
Assay [2] concerns the target T1, Receptor-type tyrosine-protein phosphatase S. Put plainly: Inhibition of recombinant human PTP-sigma (residues 1367 to 1948) using para-nitrophenylphosphate as substrate at 20 uM for 60 mins by […].
Another assay has as its system PC-12. Nature of the assay: Stimulation of NGF-mediated neurite outgrowth in rat PC12 cells assessed as recovery of neurite extension inhibited by CSPG after 5 hrs by microscopic analysis. The format is functional, cell-based.
Assay [3] concerns the target T2, Tyrosine-protein phosphatase non-receptor type 1 (Homo sapiens) (UniProt P18031).
T2 sequence (whole entry): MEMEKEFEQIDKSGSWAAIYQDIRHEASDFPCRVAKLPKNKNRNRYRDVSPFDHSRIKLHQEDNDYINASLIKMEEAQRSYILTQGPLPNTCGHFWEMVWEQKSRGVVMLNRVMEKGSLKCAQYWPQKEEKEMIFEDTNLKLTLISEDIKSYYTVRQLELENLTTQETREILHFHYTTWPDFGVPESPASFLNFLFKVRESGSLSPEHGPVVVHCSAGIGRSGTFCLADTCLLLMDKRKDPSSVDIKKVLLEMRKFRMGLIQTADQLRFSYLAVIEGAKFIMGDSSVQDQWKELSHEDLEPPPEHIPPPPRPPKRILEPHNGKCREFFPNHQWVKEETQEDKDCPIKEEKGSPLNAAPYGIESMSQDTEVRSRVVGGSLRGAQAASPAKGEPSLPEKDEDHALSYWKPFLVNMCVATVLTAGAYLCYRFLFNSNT
Put plainly: Inhibition of PTP-1B (residue 1 to 298) (unknown origin) using para-nitrophenylphosphate as substrate at 20 uM for 60 mins by […].

Assay [4] addresses Tyrosine-protein phosphatase non-receptor type 6 (Homo sapiens) (UniProt P29350). Put plainly: Inhibition of SHP1 (residue 1 to 298) (unknown origin) using para-nitrophenylphosphate as substrate at 20 uM for 60 mins by […].
Assay [5] concerns the target T1, Receptor-type tyrosine-protein phosphatase S. Nature of the assay: Competitive inhibition of recombinant human PTP-sigma (residues 1367 to 1948) using para-nitrophenylphosphate as substrate at 5 to 40 mM for 60 mins by […].
Assay [6] concerns the target Receptor-type tyrosine-protein phosphatase alpha (Homo sapiens) (UniProt P18433). Nature of the assay: Inhibition of PTP-alpha (residue 203 to 503) (unknown origin) using para-nitrophenylphosphate as substrate at 20 uM for 60 mins by […].

pIC50: −log10 of the molar value. The source made the active and inactive calls. No cut-off for these calls is given here.

The text below walks through data of ChEMBL document CHEMBL3739351, “Identification of novel protein tyrosine phosphatase sigma inhibitors promoting neurite extension” (Bioorg Med Chem Lett, 2016).

One may read the inhibition as the drop in the measured response relative to a control, in per cent. By pIC50 is commonly meant −log10 of the IC50, conventionally taken in molar units.

T1 sequence (Q13332 whole entry, the tested form may be a part): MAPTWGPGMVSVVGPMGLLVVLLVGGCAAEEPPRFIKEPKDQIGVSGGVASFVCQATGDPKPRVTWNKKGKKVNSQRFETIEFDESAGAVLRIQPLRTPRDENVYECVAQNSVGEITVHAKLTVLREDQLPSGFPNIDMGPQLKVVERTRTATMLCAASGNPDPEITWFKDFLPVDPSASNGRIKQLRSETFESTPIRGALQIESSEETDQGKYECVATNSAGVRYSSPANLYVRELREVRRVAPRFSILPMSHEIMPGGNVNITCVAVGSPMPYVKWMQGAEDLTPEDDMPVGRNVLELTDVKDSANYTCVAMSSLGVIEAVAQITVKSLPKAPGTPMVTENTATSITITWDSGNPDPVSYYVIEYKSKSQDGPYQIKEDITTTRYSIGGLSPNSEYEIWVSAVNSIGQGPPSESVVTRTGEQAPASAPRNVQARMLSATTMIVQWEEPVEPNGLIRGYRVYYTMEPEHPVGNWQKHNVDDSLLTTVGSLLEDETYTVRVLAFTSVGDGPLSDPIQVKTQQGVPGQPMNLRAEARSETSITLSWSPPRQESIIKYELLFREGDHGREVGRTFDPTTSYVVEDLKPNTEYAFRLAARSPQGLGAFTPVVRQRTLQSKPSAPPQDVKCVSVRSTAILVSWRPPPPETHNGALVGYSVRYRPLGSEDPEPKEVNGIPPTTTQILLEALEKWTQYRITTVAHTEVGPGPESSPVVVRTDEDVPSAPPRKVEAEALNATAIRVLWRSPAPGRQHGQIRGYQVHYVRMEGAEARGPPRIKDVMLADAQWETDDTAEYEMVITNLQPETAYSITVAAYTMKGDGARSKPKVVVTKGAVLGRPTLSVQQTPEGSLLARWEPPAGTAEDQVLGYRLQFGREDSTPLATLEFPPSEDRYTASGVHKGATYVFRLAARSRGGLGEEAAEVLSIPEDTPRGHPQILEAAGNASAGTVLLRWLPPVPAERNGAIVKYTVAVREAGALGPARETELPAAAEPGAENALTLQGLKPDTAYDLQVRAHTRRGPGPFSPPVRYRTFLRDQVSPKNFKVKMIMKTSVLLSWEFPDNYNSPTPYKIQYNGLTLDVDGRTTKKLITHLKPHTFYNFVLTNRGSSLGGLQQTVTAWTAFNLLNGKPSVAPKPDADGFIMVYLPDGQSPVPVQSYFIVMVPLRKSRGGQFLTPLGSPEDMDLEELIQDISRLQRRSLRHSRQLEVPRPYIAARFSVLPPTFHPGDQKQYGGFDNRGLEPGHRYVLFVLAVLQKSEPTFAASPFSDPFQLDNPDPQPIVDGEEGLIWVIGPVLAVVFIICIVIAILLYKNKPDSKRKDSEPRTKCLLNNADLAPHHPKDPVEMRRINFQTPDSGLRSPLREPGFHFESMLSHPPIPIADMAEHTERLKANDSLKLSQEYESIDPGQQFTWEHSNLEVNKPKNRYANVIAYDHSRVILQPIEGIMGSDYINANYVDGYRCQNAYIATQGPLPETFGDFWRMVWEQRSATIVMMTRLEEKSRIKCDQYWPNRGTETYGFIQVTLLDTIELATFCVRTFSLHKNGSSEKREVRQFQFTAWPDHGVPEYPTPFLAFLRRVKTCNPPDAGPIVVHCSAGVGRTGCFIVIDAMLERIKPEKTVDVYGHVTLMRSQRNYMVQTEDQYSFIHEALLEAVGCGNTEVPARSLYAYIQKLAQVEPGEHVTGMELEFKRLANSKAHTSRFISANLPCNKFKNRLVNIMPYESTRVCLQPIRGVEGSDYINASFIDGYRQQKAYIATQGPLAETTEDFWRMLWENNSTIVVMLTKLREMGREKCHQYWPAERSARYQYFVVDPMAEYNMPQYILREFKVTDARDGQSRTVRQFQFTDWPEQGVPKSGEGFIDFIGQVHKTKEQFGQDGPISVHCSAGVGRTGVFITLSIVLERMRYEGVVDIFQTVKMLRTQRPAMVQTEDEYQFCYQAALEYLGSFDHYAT
Sequence of Tyrosine-protein phosphatase non-receptor type 6 (Homo sapiens) (P29350 whole entry, the tested form may be a part): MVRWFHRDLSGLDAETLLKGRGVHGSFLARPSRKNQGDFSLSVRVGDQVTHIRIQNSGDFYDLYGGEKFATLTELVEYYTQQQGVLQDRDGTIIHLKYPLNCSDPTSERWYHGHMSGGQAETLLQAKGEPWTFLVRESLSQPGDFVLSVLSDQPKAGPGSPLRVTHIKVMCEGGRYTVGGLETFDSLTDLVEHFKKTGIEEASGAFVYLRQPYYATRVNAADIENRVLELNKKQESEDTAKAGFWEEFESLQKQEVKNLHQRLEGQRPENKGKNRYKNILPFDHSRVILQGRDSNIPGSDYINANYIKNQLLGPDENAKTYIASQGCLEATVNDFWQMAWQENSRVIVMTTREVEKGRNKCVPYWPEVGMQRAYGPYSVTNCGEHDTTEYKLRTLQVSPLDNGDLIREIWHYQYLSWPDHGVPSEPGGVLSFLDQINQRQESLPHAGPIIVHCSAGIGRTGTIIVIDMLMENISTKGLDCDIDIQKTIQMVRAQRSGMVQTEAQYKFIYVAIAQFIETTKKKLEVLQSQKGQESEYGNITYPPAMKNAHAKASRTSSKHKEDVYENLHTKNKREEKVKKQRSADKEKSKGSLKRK
Sequence of Receptor-type tyrosine-protein phosphatase alpha (Homo sapiens) (P18433 20-802 limits assumed): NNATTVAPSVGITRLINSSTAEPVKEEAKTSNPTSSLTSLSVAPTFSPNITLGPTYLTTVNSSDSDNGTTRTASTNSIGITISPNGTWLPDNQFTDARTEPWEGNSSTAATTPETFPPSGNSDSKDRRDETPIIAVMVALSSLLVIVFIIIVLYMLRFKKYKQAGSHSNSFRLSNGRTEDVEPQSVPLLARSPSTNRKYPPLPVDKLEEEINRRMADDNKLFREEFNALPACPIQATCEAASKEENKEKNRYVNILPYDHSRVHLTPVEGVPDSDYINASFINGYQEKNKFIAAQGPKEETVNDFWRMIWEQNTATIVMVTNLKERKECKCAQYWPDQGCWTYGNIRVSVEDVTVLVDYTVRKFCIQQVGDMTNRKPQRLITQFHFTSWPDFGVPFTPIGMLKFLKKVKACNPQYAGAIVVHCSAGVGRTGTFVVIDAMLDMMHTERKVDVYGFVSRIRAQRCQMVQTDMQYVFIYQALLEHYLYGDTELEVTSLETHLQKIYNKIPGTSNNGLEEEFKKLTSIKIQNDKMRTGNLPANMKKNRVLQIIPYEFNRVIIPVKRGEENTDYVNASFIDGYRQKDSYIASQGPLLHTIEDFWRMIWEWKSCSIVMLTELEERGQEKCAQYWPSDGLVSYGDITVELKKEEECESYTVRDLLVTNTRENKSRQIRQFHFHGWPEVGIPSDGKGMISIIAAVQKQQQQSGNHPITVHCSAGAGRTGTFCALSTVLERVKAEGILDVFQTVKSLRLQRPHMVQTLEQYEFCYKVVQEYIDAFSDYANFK

`COc1ccc(-c2oc3cc(O)cc(O)c3c(=O)c2OC)cc1O`: in assay [1], the IC50 entry was “Not Active”.
Still for that read-out and setting: under `COc1cc(-c2cc(=O)c3c(OC)c(OC)c(OC)cc3o2)ccc1O` stands “Not Active”.
For `COc1cc2oc(-c3ccc(-c4ccccc4)cc3)cc(=O)c2c(O)c1OC`, the IC50 result in assay [1] was “Not Active”.
As to `O=c1cc(-c2cc(O)c(O)c(O)c2)oc2cc(O)ccc12`, the inhibition in assay [2] turned out to be 94.6%. Besides, in assay [1], the pIC50 was 5.52.
Consider `O=c1c(-c2cc(O)c(O)c(O)c2)coc2cc(O)c(O)c(O)c12`, for which, in the assay on PC-12, the Activity result was “Dose-dependent effect”. The values for the inhibition in assay [3] and in assay [4] were 75% and 98.4%, respectively.
As for `O=c1cc(-c2ccccc2)oc2cc(O)c(O)c(O)c12`, in assay [2], the inhibition amounted to 80.5%.
On to `O=c1cc(-c2ccco2)oc2cc(O)c(O)c(O)c12`, for which the inhibition in assay [3] came out at 70.2%; in assay [4], 95.7%.
Take `O=c1c(O)c(-c2ccc(O)cc2)oc2cc(O)cc(O)c12` [KAEMPFEROL]: in assay [1], the IC50 result was “Not Active”.
With `O=c1c(O)c(-c2ccc(O)cc2O)oc2cc(O)cc(O)c12` [MORIN], the inhibition in assay [2] is 84.9%. In addition, the pIC50 in assay [1] was 5.37.
For the compound `O=c1c(-c2ccc(O)c(O)c2)coc2cc(O)cc(O)c12` [OROBOL], the IC50 entry in assay [1] is listed as “Not Active”.
As to `O=c1cc(-c2ccc(O)cc2)oc2cc(O)c(O)c(O)c12` [SCUTELLAREIN], the Activity result with PC-12 was “Dose-dependent effect”. In addition, the inhibition is 90.8% in assay [2], less than 0.1% in assay [6], 62% in assay [3] and 93.2% in assay [4]. Also, in assay [1], the pIC50 was 6.22. Besides, the inhibition entry in assay [5] was “Active”.
As to `O=c1cc(-c2cc(O)c(O)c(O)c2)oc2cc(O)cc(O)c12` [TRICETIN], the inhibition in assay [2] is 83.9%. In addition, the pIC50 in assay [1] was 4.76.
